# Test results as given in patent US20050176812A1, “Method of treating cancer” (priority 2003, published 2005).
# Legend:
# [1] = stability of discodermolide infusion solution; format: physicochemical; conditions: infusion concentrate mixed with diluent; infusion solution 0.1-2.0 mg/mL, 0.1-1.5 mg/mL, 0.5-8.0 mg/mL or 0.77 mg/mL
# Procedure: The amount of diluent used in admixture with the infusion concentrate to form an infusion solution may be chosen so as to obtain a desired concentration of discodermolide in the infusion solution. The amount of diluent used is also chosen so that the solution is stable long enough to be administered. Concentration of infusion solutions are 0.1-2.0 mg/mL, or 0.1-1.5 mg/mL or preferably 0.5-8.0 mg/mL or 0.77 mg/mL. Such solutions are found to be stable for up to 8 hours.
# [2] = precipitation on direct i.v. infusion followed by normal saline flush; format: physicochemical; conditions: 0.77 mg/mL in 40% propylene glycol, 10% ethanol, 50% normal saline; direct i.v. infusion into the vein followed by normal saline flush
# Procedure: Preferably the infusion solution of the present invention is prepared by mixing the infusion concentrate with a diluent, such as 16.3% W/v ethanol in saline in a suitable container. A preferred formulation comprises 1 mL of 2 mg/mL infusion concentrate diluted with 1.6 mL of 16.3% w/v ethanol in saline to yield an infusion solution containing 0.77 mg/mL discodermolide in 40% propylene glycol, 10% ethanol and 50% normal saline. This solution is administered via iv infusion, or push into Y tubing containing a 0.9% normal saline drip, directly into the vein and the drug solution residue in the tubing will be flushed with normal saline. The volume of discodermolide solution given via i.v. push will vary from 0.3 mL (at the starting does of 0.2 mg or 0.13 mg/m^2) to 26 mL (for a dose of 20 mg or 11.43 mg/m^2) or 43 mL (for a dose of 33 mg or 19.2 mg/m^2).
smiles,measurement,setting,value
C=C/C=C\[C@H](C)[C@H](OC(N)=O)[C@@H](C)[C@H](O)[C@@H](C)C/C(C)=C\[C@H](C)[C@@H](O)[C@@H](C)/C=C\[C@@H](O)C[C@@H]1OC(=O)[C@H](C)[C@@H](O)[C@H]1C [discodermolide],stability of infusion solution (time stable),[1],up to 8 hours
same,precipitation of discodermolide,[2],will not cause any precipitation
